Measurements published in the kinase profiling compilation of Christmann-Franck et al. (2016).
“And” between values parts separate entries of the source, which are not always exact repeats. Equal entries are not always repeated.

These compounds were tested against FLT1 (human) (UniProt P17948) (assay: radiometric filter-binding kinase assay). Conditions: compound 100.0 µM; ATP 20 µM.
For `CC(C)(C)Nc1c(C2CC2)nc2[nH]cnn12`, the inhibition was 12%. With `O=c1cc(-c2ccccc2F)nc2[nH]ccn12` the inhibition was 39%.

These compounds were tested against GCK (human) (UniProt Q12851) (assay: radiometric filter-binding kinase assay). Conditions: compound 100.0 µM; ATP 20 µM.
GCK (human), sequence (Q12851 whole entry, looked up): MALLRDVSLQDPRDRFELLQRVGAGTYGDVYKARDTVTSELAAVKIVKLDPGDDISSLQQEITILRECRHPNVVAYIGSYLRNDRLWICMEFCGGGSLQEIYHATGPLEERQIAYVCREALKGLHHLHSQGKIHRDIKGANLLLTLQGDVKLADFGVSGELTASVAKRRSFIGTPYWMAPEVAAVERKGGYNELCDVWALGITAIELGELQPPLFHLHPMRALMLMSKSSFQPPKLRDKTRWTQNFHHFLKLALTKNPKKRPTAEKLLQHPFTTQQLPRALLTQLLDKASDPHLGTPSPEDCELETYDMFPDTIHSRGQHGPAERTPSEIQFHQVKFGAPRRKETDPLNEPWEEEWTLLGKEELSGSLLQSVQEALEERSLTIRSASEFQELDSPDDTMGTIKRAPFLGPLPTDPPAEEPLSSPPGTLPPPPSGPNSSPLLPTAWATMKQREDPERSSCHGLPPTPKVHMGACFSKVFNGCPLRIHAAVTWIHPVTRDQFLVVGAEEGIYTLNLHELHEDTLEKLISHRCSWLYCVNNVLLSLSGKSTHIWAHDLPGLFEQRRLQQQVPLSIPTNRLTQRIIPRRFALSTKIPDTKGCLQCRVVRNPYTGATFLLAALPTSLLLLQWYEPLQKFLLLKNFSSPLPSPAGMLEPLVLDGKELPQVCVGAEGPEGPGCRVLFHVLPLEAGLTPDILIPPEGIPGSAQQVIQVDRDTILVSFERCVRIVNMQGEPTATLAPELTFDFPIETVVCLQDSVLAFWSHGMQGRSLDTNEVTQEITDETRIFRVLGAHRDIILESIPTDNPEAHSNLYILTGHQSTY
Compound `COc1ccc(-c2cc3c(=O)[nH]cnc3s2)cc1OC` has an inhibition of 0%. With `COc1ccc(NC(=S)Nc2cnc3[nH]cnn3c2=O)cn1` the inhibition was 0%. In the case of `CC(=O)Nc1nc2cnc(-c3c(C)cccc3C)cn2n1`, the inhibition is reported as 0%. Compound `CC(C)(C)Nc1c(C2CC2)nc2[nH]cnn12` has an inhibition of 8%. `O=c1cc(-c2ccccc2F)nc2[nH]ccn12` was tested, and the inhibition was 29%.

What follows are compounds tested on SGK1 (human), O00141 [S422D] (assay: radiometric filter-binding kinase assay). Conditions: compound 100.0 µM; ATP 20 µM.
SGK1 (human), O00141 [S422D], sequence (O00141 whole entry S422D, looked up): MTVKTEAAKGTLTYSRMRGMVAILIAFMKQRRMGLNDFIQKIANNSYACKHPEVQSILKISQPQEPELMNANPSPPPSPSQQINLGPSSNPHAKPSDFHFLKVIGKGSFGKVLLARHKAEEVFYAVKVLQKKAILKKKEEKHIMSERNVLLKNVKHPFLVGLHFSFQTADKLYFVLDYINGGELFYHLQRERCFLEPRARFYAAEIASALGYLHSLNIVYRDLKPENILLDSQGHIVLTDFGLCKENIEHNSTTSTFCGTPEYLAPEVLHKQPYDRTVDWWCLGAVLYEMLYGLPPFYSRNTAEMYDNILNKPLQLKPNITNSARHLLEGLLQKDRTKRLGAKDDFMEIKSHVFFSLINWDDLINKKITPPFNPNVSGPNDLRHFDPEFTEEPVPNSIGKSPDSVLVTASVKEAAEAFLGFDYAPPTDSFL
In the case of `COc1ccc(-c2cc3c(=O)[nH]cnc3s2)cc1OC`, the inhibition is reported as 63%. In the case of `COc1ccc(NC(=S)Nc2cnc3[nH]cnn3c2=O)cn1`, the inhibition is reported as 0%. With `CC(=O)Nc1nc2cnc(-c3c(C)cccc3C)cn2n1` the inhibition was 0%. `CC(C)(C)Nc1c(C2CC2)nc2[nH]cnn12` gave an inhibition of 0%. `O=c1cc(-c2ccccc2F)nc2[nH]ccn12` showed an inhibition of 18%.

Each compound was assayed against PRKACA (human) (UniProt P17612) (assay: radiometric filter-binding kinase assay). Conditions: compound 100.0 µM; ATP 20 µM.
In the case of `COc1ccc(-c2cc3c(=O)[nH]cnc3s2)cc1OC`, the inhibition is reported as 34% and 38%. For `COc1ccc(NC(=S)Nc2cnc3[nH]cnn3c2=O)cn1`, the inhibition was 0% and 14%. For `CC(=O)Nc1nc2cnc(-c3c(C)cccc3C)cn2n1`, the inhibition was 0% and 1%. In the case of `CC(C)(C)Nc1c(C2CC2)nc2[nH]cnn12`, the inhibition is reported as 0% and 5%. `O=c1cc(-c2ccccc2F)nc2[nH]ccn12` was tested, and the inhibition was 0% and 11%.

What follows are compounds tested against MAPK14 (human) (UniProt Q16539) (assay: radiometric filter-binding kinase assay). Conditions: compound 100.0 µM; ATP 50 µM.
MAPK14 (human), sequence (Q16539 whole entry, looked up): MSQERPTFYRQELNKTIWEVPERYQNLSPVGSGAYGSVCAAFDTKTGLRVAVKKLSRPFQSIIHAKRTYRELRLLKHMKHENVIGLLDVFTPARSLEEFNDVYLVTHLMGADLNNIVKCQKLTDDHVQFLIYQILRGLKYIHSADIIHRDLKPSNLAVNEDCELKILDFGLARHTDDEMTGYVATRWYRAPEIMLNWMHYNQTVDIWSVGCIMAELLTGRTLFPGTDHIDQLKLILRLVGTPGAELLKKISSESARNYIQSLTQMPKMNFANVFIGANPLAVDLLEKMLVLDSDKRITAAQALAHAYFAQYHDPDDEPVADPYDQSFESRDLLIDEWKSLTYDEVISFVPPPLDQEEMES
`COc1ccc(-c2cc3c(=O)[nH]cnc3s2)cc1OC` gave an inhibition of 0%. With `COc1ccc(NC(=S)Nc2cnc3[nH]cnn3c2=O)cn1` the inhibition was 0%. For `CC(=O)Nc1nc2cnc(-c3c(C)cccc3C)cn2n1`, the inhibition was 0%. `CC(C)(C)Nc1c(C2CC2)nc2[nH]cnn12` was tested, and the inhibition was 0%. For `O=c1cc(-c2ccccc2F)nc2[nH]ccn12`, the inhibition was 21%.

The compounds below were run against MAPKAPK3 (human) (UniProt Q16644) (assay: radiometric filter-binding kinase assay). Conditions: compound 100.0 µM; ATP 20 µM.
MAPKAPK3 (human), sequence (Q16644 whole entry, looked up): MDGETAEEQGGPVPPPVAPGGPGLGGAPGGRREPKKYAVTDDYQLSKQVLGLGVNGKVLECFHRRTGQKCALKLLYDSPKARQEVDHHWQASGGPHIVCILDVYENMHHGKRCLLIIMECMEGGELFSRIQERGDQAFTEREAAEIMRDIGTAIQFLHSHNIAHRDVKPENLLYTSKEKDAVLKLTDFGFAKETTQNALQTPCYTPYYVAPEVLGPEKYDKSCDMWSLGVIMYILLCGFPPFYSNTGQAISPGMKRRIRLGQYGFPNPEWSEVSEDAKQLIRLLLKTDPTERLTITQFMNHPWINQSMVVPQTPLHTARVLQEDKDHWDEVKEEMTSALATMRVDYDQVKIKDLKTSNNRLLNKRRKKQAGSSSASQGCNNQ
In the case of `COc1ccc(-c2cc3c(=O)[nH]cnc3s2)cc1OC`, the inhibition is reported as 56%. Work on `COc1ccc(NC(=S)Nc2cnc3[nH]cnn3c2=O)cn1` yielded an inhibition of 37%. In the case of `CC(=O)Nc1nc2cnc(-c3c(C)cccc3C)cn2n1`, the inhibition is reported as 74%. Work on `CC(C)(C)Nc1c(C2CC2)nc2[nH]cnn12` yielded an inhibition of 10%. With `O=c1cc(-c2ccccc2F)nc2[nH]ccn12` the inhibition was 15%.

Each compound was assayed against MST4 (human) (UniProt Q9P289) (assay: radiometric filter-binding kinase assay). Conditions: compound 100.0 µM; ATP 20 µM.
MST4 (human), sequence (Q9P289 whole entry, looked up): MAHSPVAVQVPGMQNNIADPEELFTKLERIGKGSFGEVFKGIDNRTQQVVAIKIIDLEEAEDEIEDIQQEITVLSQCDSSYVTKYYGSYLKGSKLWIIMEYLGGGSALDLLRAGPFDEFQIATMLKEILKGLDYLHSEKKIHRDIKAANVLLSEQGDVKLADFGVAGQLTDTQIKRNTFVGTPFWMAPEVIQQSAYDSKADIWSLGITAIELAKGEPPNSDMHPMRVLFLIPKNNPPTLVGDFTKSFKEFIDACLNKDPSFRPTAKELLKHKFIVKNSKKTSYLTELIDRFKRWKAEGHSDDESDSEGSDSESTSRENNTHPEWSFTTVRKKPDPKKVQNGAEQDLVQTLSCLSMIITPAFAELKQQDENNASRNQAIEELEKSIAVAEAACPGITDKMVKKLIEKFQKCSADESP
With `COc1ccc(-c2cc3c(=O)[nH]cnc3s2)cc1OC` the inhibition was 16%. `COc1ccc(NC(=S)Nc2cnc3[nH]cnn3c2=O)cn1` was tested, and the inhibition was 0%. Work on `CC(=O)Nc1nc2cnc(-c3c(C)cccc3C)cn2n1` yielded an inhibition of 0%. In the case of `CC(C)(C)Nc1c(C2CC2)nc2[nH]cnn12`, the inhibition is reported as 0%. `O=c1cc(-c2ccccc2F)nc2[nH]ccn12` gave an inhibition of 13%.

Each compound was assayed against MARK2 (human) (UniProt Q7KZI7) (assay: radiometric filter-binding kinase assay). Conditions: compound 100.0 µM; ATP 20 µM.
MARK2 (human), sequence (Q7KZI7 whole entry, looked up): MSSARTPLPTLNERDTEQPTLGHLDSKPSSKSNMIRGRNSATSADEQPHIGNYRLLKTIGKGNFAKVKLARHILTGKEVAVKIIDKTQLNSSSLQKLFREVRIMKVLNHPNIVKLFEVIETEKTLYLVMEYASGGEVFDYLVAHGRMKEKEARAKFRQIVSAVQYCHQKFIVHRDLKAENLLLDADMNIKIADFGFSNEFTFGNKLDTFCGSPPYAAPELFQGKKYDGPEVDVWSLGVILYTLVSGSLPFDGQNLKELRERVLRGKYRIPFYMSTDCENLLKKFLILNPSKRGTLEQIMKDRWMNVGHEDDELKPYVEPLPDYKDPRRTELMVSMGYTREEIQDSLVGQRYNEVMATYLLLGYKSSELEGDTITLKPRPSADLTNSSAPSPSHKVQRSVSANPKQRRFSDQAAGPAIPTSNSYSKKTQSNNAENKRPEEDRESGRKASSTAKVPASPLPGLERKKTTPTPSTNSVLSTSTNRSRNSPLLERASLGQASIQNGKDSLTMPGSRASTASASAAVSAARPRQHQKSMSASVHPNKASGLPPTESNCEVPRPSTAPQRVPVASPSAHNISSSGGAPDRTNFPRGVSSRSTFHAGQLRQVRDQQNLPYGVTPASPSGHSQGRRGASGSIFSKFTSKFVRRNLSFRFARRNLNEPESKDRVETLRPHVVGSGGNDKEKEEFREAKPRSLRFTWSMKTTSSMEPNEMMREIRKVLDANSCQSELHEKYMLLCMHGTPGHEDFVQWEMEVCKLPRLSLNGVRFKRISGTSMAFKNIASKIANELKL
`COc1ccc(-c2cc3c(=O)[nH]cnc3s2)cc1OC` showed an inhibition of 0%. Work on `COc1ccc(NC(=S)Nc2cnc3[nH]cnn3c2=O)cn1` yielded an inhibition of 0%. `CC(=O)Nc1nc2cnc(-c3c(C)cccc3C)cn2n1` gave an inhibition of 0%. `CC(C)(C)Nc1c(C2CC2)nc2[nH]cnn12` gave an inhibition of 0%. With `O=c1cc(-c2ccccc2F)nc2[nH]ccn12` the inhibition was 0%.

These compounds were tested against NEK6 (human) (UniProt Q9HC98) (assay: radiometric filter-binding kinase assay). Conditions: compound 100.0 µM; ATP 50 µM.
NEK6 (human), sequence (Q9HC98 whole entry, looked up): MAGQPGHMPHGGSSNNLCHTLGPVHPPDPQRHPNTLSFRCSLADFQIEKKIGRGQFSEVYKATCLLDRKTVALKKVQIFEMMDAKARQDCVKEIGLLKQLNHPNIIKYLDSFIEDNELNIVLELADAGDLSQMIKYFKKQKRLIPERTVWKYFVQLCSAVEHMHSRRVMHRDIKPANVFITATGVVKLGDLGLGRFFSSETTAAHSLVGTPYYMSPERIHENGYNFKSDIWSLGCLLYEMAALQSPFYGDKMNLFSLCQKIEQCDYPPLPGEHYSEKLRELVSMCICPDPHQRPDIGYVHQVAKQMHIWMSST
`COc1ccc(-c2cc3c(=O)[nH]cnc3s2)cc1OC` gave an inhibition of 60%. With `COc1ccc(NC(=S)Nc2cnc3[nH]cnn3c2=O)cn1` the inhibition was 3%. Work on `CC(=O)Nc1nc2cnc(-c3c(C)cccc3C)cn2n1` yielded an inhibition of 0%. Work on `CC(C)(C)Nc1c(C2CC2)nc2[nH]cnn12` yielded an inhibition of 0%. `O=c1cc(-c2ccccc2F)nc2[nH]ccn12` showed an inhibition of 7%.

The compounds below were run against MKNK1 (human) (UniProt Q9BUB5) (assay: radiometric filter-binding kinase assay). Conditions: compound 100.0 µM; ATP 50 µM.
MKNK1 (human), sequence (Q9BUB5 whole entry, looked up): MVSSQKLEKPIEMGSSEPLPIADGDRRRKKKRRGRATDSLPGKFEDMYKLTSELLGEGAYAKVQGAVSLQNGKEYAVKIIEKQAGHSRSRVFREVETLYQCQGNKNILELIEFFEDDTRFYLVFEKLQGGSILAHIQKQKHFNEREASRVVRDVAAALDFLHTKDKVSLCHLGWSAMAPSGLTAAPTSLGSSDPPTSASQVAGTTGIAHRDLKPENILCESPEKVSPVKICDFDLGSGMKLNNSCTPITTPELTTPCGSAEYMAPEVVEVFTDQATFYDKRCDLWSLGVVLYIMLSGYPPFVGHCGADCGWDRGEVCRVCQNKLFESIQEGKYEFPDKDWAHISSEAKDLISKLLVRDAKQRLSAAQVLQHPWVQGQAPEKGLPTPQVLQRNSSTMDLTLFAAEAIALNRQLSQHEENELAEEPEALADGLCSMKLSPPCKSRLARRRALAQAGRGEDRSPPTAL
With `COc1ccc(-c2cc3c(=O)[nH]cnc3s2)cc1OC` the inhibition was 5%. Compound `COc1ccc(NC(=S)Nc2cnc3[nH]cnn3c2=O)cn1` has an inhibition of 3%. Work on `CC(=O)Nc1nc2cnc(-c3c(C)cccc3C)cn2n1` yielded an inhibition of 0%. Work on `CC(C)(C)Nc1c(C2CC2)nc2[nH]cnn12` yielded an inhibition of 0%. In the case of `O=c1cc(-c2ccccc2F)nc2[nH]ccn12`, the inhibition is reported as 31%.

These compounds were tested against PHKG1 (human) (UniProt Q16816) (assay: radiometric filter-binding kinase assay). Conditions: compound 100.0 µM; ATP 50 µM.
PHKG1 (human), sequence (Q16816 whole entry, looked up): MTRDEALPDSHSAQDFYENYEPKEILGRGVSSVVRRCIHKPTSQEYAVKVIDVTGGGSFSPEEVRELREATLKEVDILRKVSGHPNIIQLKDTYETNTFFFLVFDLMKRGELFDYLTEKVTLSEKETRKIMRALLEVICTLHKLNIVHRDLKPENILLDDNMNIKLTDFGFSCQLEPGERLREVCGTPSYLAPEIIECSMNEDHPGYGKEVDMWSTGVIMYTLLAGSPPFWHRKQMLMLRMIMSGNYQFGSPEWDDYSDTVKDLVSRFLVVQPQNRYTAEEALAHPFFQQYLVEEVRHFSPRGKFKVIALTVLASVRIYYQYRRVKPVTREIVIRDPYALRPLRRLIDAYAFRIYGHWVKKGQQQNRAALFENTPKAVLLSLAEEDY
With `COc1ccc(-c2cc3c(=O)[nH]cnc3s2)cc1OC` the inhibition was 13%. `COc1ccc(NC(=S)Nc2cnc3[nH]cnn3c2=O)cn1` was tested, and the inhibition was 30%.
